Experiments:
[1] = tested on: Ruminal epithelial cells (REC); test: Net urea production by isolated ruminal epithelial cells incubated with ornithine-urea cycle substrate intermediates; format: cell-based, sheep; set-up: net urea production: dose or concentration left out as unconfirmed
Source text: Ruminal epithelial cells (REC) and duodenal mucosal cells (DMC) were harvested from four growing Polypay ram lambs (33.1 plus/minus 4.8 kg body weight) fed a pelleted diet comprised of 55% forage (alfalfa hay) and 45% concentrate (dry ground corn. soybean meal, and premix of minerals and vitamins) ad libitum for at least two weeks before slaughter. All animal procedures were approved by the Beltsville Agricultural Research Center Institutional Animal Care and Use Committee (protocol # 02-008). Gut cells were isolated separately for each sheep following the procedures described by Baldwin and McLeod and Oba et al. Cell viability averaged 73.1% for REC and 82.4% for DMC. […] N-carbamoyl glutamate is a stable analog of […] stimulator of carbamoyl phosphate synthetase. Treatments were arranged in a 2×4 factorial design, and performed in triplicate incubations for each sheep. […] Krebs-Ringer plus 24 mM HEPES and 0.12 M sodium bicarbonate) was oxygenated with O2:CO2 (95:5) and the pH adjusted to 7.4. Incubations were initiated by addition of 0.5 ml of cell suspension (1×10^7 viable cells) to freshly gassed (20 s under 95:5 O2:CO2) media, and flasks were placed into a reciprocal action shaking water bath at 37° C. After 90 min, 0.2 ml of concentrated HClO4 was injected into the flasks to terminate the incubation, followed by addition of 0.3 ml of 5.8 M K2CO3 to neutralize the media. […] See Lobley, G. E. et al., Br. J. Nutr. […] Urea concentration was determined by isotope dilution with gas chromatography-mass spectrometry (HP6890 coupled to an HP5973 Mass Selective Detector, Agilent, Palo Alto, Calif.) essentially according to the known method of Calder et al. See Calder, A. G., Rapid Commun. […] Net urea production was calculated by subtracting background urea present at time 0 (Control) from concentrations after 90-min incubation. Data were analyzed separately for REC and DMC using the Proc Mixed procedure of SAS (SAS Inc., Cary, N.C.) with fixed effect of VFA type, substrate combination, their interactions, and random effect of animals in the model.

[2] = tested on: duodenal mucosal cells (DMC); test: Net urea production by isolated duodenal mucosal cells incubated with ornithine-urea cycle substrate intermediates; format: cell-based, sheep; set-up: net urea production: dose or concentration left out as unconfirmed
Source text: Ruminal epithelial cells (REC) and duodenal mucosal cells (DMC) were harvested from four growing Polypay ram lambs (33.1 plus/minus 4.8 kg body weight) fed a pelleted diet comprised of 55% forage (alfalfa hay) and 45% concentrate (dry ground corn. soybean meal, and premix of minerals and vitamins) ad libitum for at least two weeks before slaughter. All animal procedures were approved by the Beltsville Agricultural Research Center Institutional Animal Care and Use Committee (protocol # 02-008). Gut cells were isolated separately for each sheep following the procedures described by Baldwin and McLeod and Oba et al. Cell viability averaged 73.1% for REC and 82.4% for DMC. […] Urea concentration was determined by isotope dilution with gas chromatography-mass spectrometry (HP6890 coupled to an HP5973 Mass Selective Detector, Agilent, Palo Alto, Calif.) essentially according to the known method of Calder et al. See Calder, A. G., Rapid Commun. […] Net urea production was calculated by subtracting background urea present at time 0 (Control) from concentrations after 90-min incubation. Data were analyzed separately for REC and DMC using the Proc Mixed procedure of SAS (SAS Inc., Cary, N.C.) with fixed effect of VFA type, substrate combination, their interactions, and random effect of animals in the model.

Compound	net urea production by REC relative to DMC ([1]; REC versus DMC in the presence of arginine)	net urea production ([1]; REC, 90 min incubation in media, background urea at time 0 subtracted)	net urea production ([2]; 90 min incubation in media, background urea at time 0 subtracted)	effect of N-carbamoyl glutamate addition on urea synthesis ([1]; REC, AspONG versus AspON (P=0.11))	effect of N-carbamoyl glutamate addition on urea synthesis ([2]; AspONG versus AspON (P<0.001))
N=C(N)NCCC[C@H](N)C(=O)O [Arg, arginine]	25 fold	54.5±6.3 nmoles·10^6 cells^−1 90 min^−1	2.1±0.7 nmoles·10^6 cells^−1 90 min^−1	–	–
NC(=O)N[C@@H](CCC(=O)O)C(=O)O [N-carbamoyl glutamate]	–	–	–	stimulatory effect	stimulatory effect

From patent publication US7951407B2, “Ruminant feed containing N-carbamoyl glutamate” (University of Maryland, priority 2003, dated 2011)
